Test results as given in ChEMBL document CHEMBL5113392, “Novel hybrid pyrrolidinedione-thiazolidinones as potential anticancer agents: Synthesis and biological evaluation” (Eur J Med Chem, 2022).

Columns and labels:
SW-620 = assay: Anticancer activity against human SW-620 cells assessed as total growth inhibition incubated for 48 hrs by SRB assay; type: functional
TK-10 = assay: Anticancer activity against human TK-10 cells assessed as growth inhibition incubated for 48 hrs by SRB assay; type: functional
M14 [1] = assay: Anticancer activity against human M14 cells assessed as lethality incubated for 48 hrs by SRB assay; type: functional; settings: read-out: LC50 (the source's name)
UACC-257 [2] = assay: Anticancer activity against human UACC-257 cells assessed as lethality incubated for 48 hrs by SRB assay; type: functional; settings: read-out: LC50 (the source's name)
CCRF-CEM [3] = assay: Anticancer activity against human CCRF-CEM cells assessed as total growth inhibition incubated for 48 hrs by SRB assay; type: functional
NCI-H226 [4] = assay: Anticancer activity against human NCI-H226 cells assessed as total growth inhibition incubated for 48 hrs by SRB assay; type: functional
NCI-H460 = assay: Anticancer activity against human NCI-H460 cells assessed as total growth inhibition incubated for 48 hrs by SRB assay; type: functional
UO-31 = assay: Anticancer activity against human UO-31 cells assessed as growth inhibition incubated for 48 hrs by SRB assay; type: functional
EKVX [5] = assay: Anticancer activity against human EKVX cells assessed as total growth inhibition incubated for 48 hrs by SRB assay; type: functional
786-0 = assay: Anticancer activity against human 786-0 cells assessed as total growth inhibition incubated for 48 hrs by SRB assay; type: functional
OVCAR-5 [6] = assay: Anticancer activity against human OVCAR-5 cells assessed as total growth inhibition incubated for 48 hrs by SRB assay; type: functional
[7] = Anticancer activity against human HCT116-p53-null cells assessed as cell growth inhibition incubated for 72 hrs by MTT assay; type: functional
HCC 2998 [8] = assay: Anticancer activity against human HCC 2998 cells assessed as lethality incubated for 48 hrs by SRB assay; type: functional; settings: read-out: LC50 (the source's name)
ACHN = assay: Anticancer activity against human ACHN cells assessed as growth inhibition incubated for 48 hrs by SRB assay; type: functional
SR [9] = assay: Anticancer activity against human SR cells assessed as total growth inhibition incubated for 48 hrs by SRB assay; type: functional
RXF 393 [10] = assay: Anticancer activity against human RXF 393 cells assessed as total growth inhibition incubated for 48 hrs by SRB assay; type: functional
Malme-3M = assay: Anticancer activity against human Malme-3M cells assessed as total growth inhibition incubated for 48 hrs by SRB assay; type: functional
HOP-62 [11] = assay: Anticancer activity against human HOP-62 cells assessed as total growth inhibition incubated for 48 hrs by SRB assay; type: functional
NCI/ADR-RES = assay: Anticancer activity against human NCI/ADR-RES cells assessed as total growth inhibition incubated for 48 hrs by SRB assay; type: functional
K562 [12] = assay: Anticancer activity against human K562 cells assessed as total growth inhibition incubated for 48 hrs by SRB assay; type: functional
EKVX [13] = assay: Anticancer activity against human EKVX cells assessed as lethality incubated for 48 hrs by SRB assay; type: functional; settings: read-out: LC50 (the source's name)
SK-MEL-28 = assay: Anticancer activity against human SK-MEL-28 cells assessed as total growth inhibition incubated for 48 hrs by SRB assay; type: functional
Lymphocyte = assay: Induction of morphological changes in mitogen activated human peripheral blood lymphocytes assessed as increase in necrotic cells incubated for 24 hrs by Hoechst 33258 and propidium iodide staining based fluorescence microscopy; type: toxicity, cell-based
NCI-H522 = assay: Anticancer activity against human NCI-H522 cells assessed as total growth inhibition incubated for 48 hrs by SRB assay; type: functional
SR [14] = assay: Anticancer activity against human SR cells assessed as lethality incubated for 48 hrs by SRB assay; type: functional; settings: read-out: LC50 (the source's name)
MCF7 = assay: Anticancer activity against human MCF7 cells assessed as lethality incubated for 48 hrs by SRB assay; type: functional; settings: read-out: LC50 (the source's name)
OVCAR-3 = assay: Anticancer activity against human OVCAR-3 cells assessed as lethality incubated for 48 hrs by SRB assay; type: functional; settings: read-out: LC50 (the source's name)
NCI-H226 [15] = assay: Anticancer activity against human NCI-H226 cells assessed as growth inhibition incubated for 48 hrs by SRB assay; type: functional
BT-549 = assay: Anticancer activity against human BT-549 cells assessed as lethality incubated for 48 hrs by SRB assay; type: functional; settings: read-out: LC50 (the source's name)
SN12C = assay: Anticancer activity against human SN12C cells assessed as growth inhibition incubated for 48 hrs by SRB assay; type: functional
HCT-116 = assay: Anticancer activity against human HCT-116 cells assessed as cell growth inhibition incubated for 72 hrs by MTT assay; type: functional
HL-60 = assay: Anticancer activity against human HL-60 cells assessed as total growth inhibition incubated for 48 hrs by SRB assay; type: functional
PC-3 = assay: Anticancer activity against human PC-3 cells assessed as lethality incubated for 48 hrs by SRB assay; type: functional; settings: read-out: LC50 (the source's name)
K562 [16] = assay: Anticancer activity against human K562 cells assessed as growth inhibition incubated for 48 hrs by SRB assay; type: functional
[17] = Cytotoxicity against human HaCaT cells assessed as cell growth inhibition incubated for 72 hrs by MTT assay; type: toxicity, cell-based
T47D = assay: Anticancer activity against human T47D cells assessed as total growth inhibition incubated for 48 hrs by SRB assay; type: functional
M14 [18] = assay: Anticancer activity against human M14 cells assessed as total growth inhibition incubated for 48 hrs by SRB assay; type: functional
Salmon testes DNA = assay: Displacement of methyl green from salmon sperm DNA at 10 uM measured after 2 hrs by fluorescence plate reader method relative to control; type: nucleic-acid assay; settings: Salmo salar
U-251 = assay: Anticancer activity against human U-251 cells assessed as lethality incubated for 48 hrs by SRB assay; type: functional; settings: read-out: LC50 (the source's name)
RXF 393 [19] = assay: Anticancer activity against human RXF 393 cells assessed as lethality incubated for 48 hrs by SRB assay; type: functional; settings: read-out: LC50 (the source's name)
MDA-MB-435 = assay: Anticancer activity against human MDA-MB-435 cells assessed as total growth inhibition incubated for 48 hrs by SRB assay; type: functional
UACC-257 [20] = assay: Anticancer activity against human UACC-257 cells assessed as growth inhibition incubated for 48 hrs by SRB assay; type: functional
HCT-15 = assay: Anticancer activity against human HCT-15 cells assessed as total growth inhibition incubated for 48 hrs by SRB assay; type: functional
OVCAR-5 [21] = assay: Anticancer activity against human OVCAR-5 cells assessed as growth inhibition incubated for 48 hrs by SRB assay; type: functional
OVCAR-4 = assay: Anticancer activity against human OVCAR-4 cells assessed as growth inhibition incubated for 48 hrs by SRB assay; type: functional
HOP-62 [22] = assay: Anticancer activity against human HOP-62 cells assessed as growth inhibition incubated for 48 hrs by SRB assay; type: functional
HCC 2998 [23] = assay: Anticancer activity against human HCC 2998 cells assessed as growth inhibition incubated for 48 hrs by SRB assay; type: functional
SR [24] = assay: Anticancer activity against human SR cells assessed as growth inhibition incubated for 48 hrs by SRB assay; type: functional
[25] = Selectivity index, ratio of GI50 for human HaCaT cells to GI50 for human MCF7 cells; type: toxicity; settings: HaCaT cells versus MCF7 cells, read-out: RatioGI50
SF-295 = assay: Anticancer activity against human SF-295 cells assessed as total growth inhibition incubated for 48 hrs by SRB assay; type: functional
CCRF-CEM [26] = assay: Anticancer activity against human CCRF-CEM cells assessed as growth inhibition incubated for 48 hrs by SRB assay; type: functional

`O=C1CC(N2C(=O)/C(=C/C(Cl)=C/c3ccc([N+](=O)[O-])cc3)SC2=S)C(=O)N1c1ccc(O)cc1` (configuration not stated) showed a TGI (SW-620) of 2.28 µM, a GI50 (TK-10) of 1.92 µM and a CC50 (M14 [1]) of 7.51 µM. It also gave a CC50 (UACC-257 [2]) of 44.2 µM, a TGI (CCRF-CEM [3]) of 3.87 µM and a TGI (NCI-H226 [4]) of 6.82 µM. The TGI (NCI-H460) was 6.75 µM, the GI50 (UO-31) was 1.35 µM and the TGI (EKVX [5]) was 11.7 µM. The TGI (786-0) was 4.8 µM, the TGI (OVCAR-5 [6]) was 3.7 µM and the GI50 [7] was 5.65 µM. For the same molecule, the CC50 (HCC 2998 [8]) was 5.76 µM, the GI50 (ACHN) was 1.36 µM and the TGI (SR [9]) was 4.97 µM. For the same molecule, the TGI (RXF 393 [10]) was 3.22 µM, the TGI (Malme-3M) was 5.79 µM and the TGI (HOP-62 [11]) was 6.63 µM. For the same molecule, the TGI (NCI/ADR-RES) was 12.1 µM, the TGI (K562 [12]) was 9.55 µM and the CC50 (EKVX [13]) was 35.3 µM. For the same molecule, the TGI (SK-MEL-28) was 4.2 µM, the Activity (Lymphocyte) was “Toxic” and the TGI (NCI-H522) was 4.23 µM. The CC50 (SR [14]) was over 100 µM, the CC50 (MCF7) was over 100 µM and the CC50 (OVCAR-3) was 4.96 µM. For the same molecule, the GI50 (NCI-H226 [15]) was 2.41 µM, the CC50 (BT-549) was 8.72 µM and the GI50 (SN12C) was 1.6 µM. For the same molecule, the GI50 (HCT-116) was 4.52 µM, the TGI (HL-60) was 9.57 µM and the CC50 (PC-3) was 8.6 µM. It also gave a GI50 (K562 [16]) of 0.603 µM, a GI50 at 72 h [17] of 73.6 µM and a TGI (T47D) of 15.8 µM. The TGI (M14 [18]) was 3.31 µM, the Activity (Salmon testes DNA) was 6.2% and the CC50 (U-251) was 6.53 µM. It also gave a CC50 (RXF 393 [19]) of 6.76 µM, a TGI (MDA-MB-435) of 4.34 µM and a GI50 (UACC-257 [20]) of 2.48 µM. It also gave a TGI (HCT-15) of 1.95 µM, a GI50 (OVCAR-5 [21]) of 1.91 µM and a GI50 (OVCAR-4) of 5.13 µM. For the same molecule, the GI50 (HOP-62 [22]) was 2.26 µM, the GI50 (HCC 2998 [23]) was 1.48 µM and the GI50 (SR [24]) was 0.394 µM. It also gave a selectivity ratio [25] of 18.4, a TGI (SF-295) of 2.7 µM and a GI50 (CCRF-CEM [26]) of 0.385 µM.

Molecule `O=C1CC(N2C(=O)/C(=C/C(Cl)=C/c3ccc([N+](=O)[O-])cc3)SC2=S)C(=O)N1c1ccc(Cl)cc1` (configuration not stated) has a TGI (SW-620) of 3.9 µM, a GI50 (TK-10) of 2.79 µM and a CC50 (M14 [1]) of over 100 µM. The CC50 (UACC-257 [2]) was over 100 µM, the TGI (CCRF-CEM [3]) was 12.4 µM and the TGI (NCI-H226 [4]) was 4.65 µM. It also gave a TGI (NCI-H460) of over 100 µM, a GI50 (UO-31) of 1.07 µM and a TGI (EKVX [5]) of over 100 µM. The TGI (786-0) was 3.33 µM, the TGI (OVCAR-5 [6]) was 4.46 µM and the GI50 [7] was 6 µM. It also gave a CC50 (HCC 2998 [8]) of 5.76 µM, a GI50 (ACHN) of 1.34 µM and a TGI (SR [9]) of 14.2 µM. For the same molecule, the TGI (RXF 393 [10]) was 2.72 µM, the TGI (Malme-3M) was 11.6 µM and the TGI (HOP-62 [11]) was 5.5 µM. The TGI (NCI/ADR-RES) was 6.19 µM, the TGI (K562 [12]) was 11.6 µM and the CC50 (EKVX [13]) was over 100 µM. The TGI (SK-MEL-28) was 4.02 µM, the Activity (Lymphocyte) was “Toxic” and the TGI (NCI-H522) was 4.36 µM. For the same molecule, the CC50 (SR [14]) was 57.6 µM, the CC50 (MCF7) was over 100 µM and the CC50 (OVCAR-3) was 8.89 µM. The GI50 (NCI-H226 [15]) was 1.92 µM, the CC50 (BT-549) was 8 µM and the GI50 (SN12C) was 1.69 µM. The GI50 (HCT-116) was 9.18 µM, the TGI (HL-60) was 8.86 µM and the CC50 (PC-3) was over 100 µM. It also gave a GI50 (K562 [16]) of 0.692 µM, a GI50 at 72 h [17] of over 100 µM and a TGI (T47D) of 6.34 µM. It also gave a TGI (M14 [18]) of 5.06 µM, an Activity (Salmon testes DNA) of 7.9% and a CC50 (U-251) of 14.1 µM. The CC50 (RXF 393 [19]) was 5.86 µM, the TGI (MDA-MB-435) was 3.39 µM and the GI50 (UACC-257 [20]) was 2.92 µM. It also gave a TGI (HCT-15) of 8.2 µM, a GI50 (OVCAR-5 [21]) of 2.04 µM and a GI50 (OVCAR-4) of 5.55 µM. For the same molecule, the GI50 (HOP-62 [22]) was 1.73 µM, the GI50 (HCC 2998 [23]) was 1.59 µM and the GI50 (SR [24]) was 0.544 µM. For the same molecule, the selectivity ratio [25] was 12.6, the TGI (SF-295) was 3.24 µM and the GI50 (CCRF-CEM [26]) was 0.486 µM.
